# Measured values published in publication PMC5516003, “Betulinic acid is a PPARγ antagonist that improves glucose uptake, promotes osteogenesis and inhibits adipogenesis” (Scientific Reports, 2017).
# What was measured:
# [1] = biological target: T1, PPARγ (Homo sapiens, UniProt P37231); assay: ITC (reverse titration) and X-ray crystal structure; also affinity cartridge and GAL4 antagonist assay (IC50 […]); format: binding
# T1 construct: gene PPARG
# T1 sequence (P37231 222-505): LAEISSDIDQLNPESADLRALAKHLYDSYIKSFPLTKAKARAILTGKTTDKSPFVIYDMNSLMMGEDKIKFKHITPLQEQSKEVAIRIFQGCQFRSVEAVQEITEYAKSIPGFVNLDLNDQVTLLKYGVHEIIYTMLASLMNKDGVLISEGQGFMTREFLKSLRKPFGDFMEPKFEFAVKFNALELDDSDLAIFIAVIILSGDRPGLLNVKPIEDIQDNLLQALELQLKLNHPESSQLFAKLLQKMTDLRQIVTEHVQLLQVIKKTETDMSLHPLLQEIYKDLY
# [2] = biological target: T2, PPARγ (Homo sapiens, UniProt P37231); assay: immobilized-receptor affinity cartridge (breakthrough shift); also GAL4 transactivation partial agonist, Emax […]; format: binding
# T2 construct: gene PPARG; His-tagged PPARγ LBD
# T2 sequence (P37231 231-505 limits assumed): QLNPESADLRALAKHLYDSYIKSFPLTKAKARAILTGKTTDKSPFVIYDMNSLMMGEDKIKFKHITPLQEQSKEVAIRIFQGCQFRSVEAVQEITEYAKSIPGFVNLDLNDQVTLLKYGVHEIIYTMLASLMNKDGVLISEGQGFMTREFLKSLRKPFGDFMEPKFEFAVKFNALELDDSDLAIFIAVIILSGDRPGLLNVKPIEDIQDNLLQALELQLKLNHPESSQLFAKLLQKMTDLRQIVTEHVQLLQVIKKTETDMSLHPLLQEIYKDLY
Compound,Kd [1] [µM],immobilized-receptor affinity cartridge (breakthrough shift); also GAL4 transact [2]
"C=C(C)[C@@H]1CC[C@]2(C(=O)O)CC[C@]3(C)[C@H](CC[C@@H]4[C@@]5(C)CC[C@H](O)C(C)(C)[C@@H]5CC[C@]43C)[C@@H]12 [BA, betulinic acid]",4,–
CC1=CC(=O)c2c(O)cccc2C1=O [plumbagin],–,"only three ligands (i.e., plumbagin, BA and coumarin) interact with the receptor"
